Literature values as cited in patent US7892523B2, “Cosmetic process for the treatment of the skin with sun-protection products and sun-protection products combination” (Coty B.V., priority 2004, dated 2011).

settings: known RPFs of standard antioxidants / usual formulations

Row | Structure (SMILES) | radical protection factor (RPF)
1 | Cc1c(C)c2c(c(C)c1O)CCC(C)(CCCC(C)CCCC(C)CCCC(C)C)O2 (racemic) [DL-α-tocopherol] | 41,200 ×10^14 radicals/mg
2 | CC(=O)OC/C=C(C)/C=C/C=C(C)/C=C/C1=C(C)CCCC1(C)C [all-trans-retinol acetate] | 196 ×10^14 radicals/mg
3 | CC1=C(/C=C/C(C)=C/C=C/C(C)=C/CO)C(C)(C)CCC1 [all-trans-retinol] | 827 ×10^14 radicals/mg
4 | CC(=O)Oc1c(C)c(C)c2c(c1C)CCC(C)(CCC[C@H](C)CCC[C@H](C)CCCC(C)C)O2 (stereo partly drawn) [α-tocopherol acetate] | 48 ×10^14 radicals/mg
